# Literature values as cited in patent US20260120816A1, “PREDICTION METHOD FOR PROTOPORPHYRINOGEN OXIDASE (PPO) INHIBITOR” (Pan Advanced Business Research, LLC, priority 2024, published 2026).
# Details: control compound, Non Patent Literature 8
smiles,measurement,value
"CC(=O)c1c(C)nn(C)c1O [compound B, 1-(5-hydroxy-1,3-dimethyl-1H-pyrazol-4-yl)ethanone]",herbicidal activity,no herbicidal activity at all
